According to US8975411B2, “Therapeutic agent for neurological diseases” (Neugen Pharma Inc., priority 2010, dated 2015):
Converted amounts (≈) assume the structure as drawn.

How the values were obtained:
[1] = test system: Human neuroblastoma SH-SY5Y cells; assay: Oxidative stress-mediated cell death suppressive (AOSCD) activity in differentiated nerve cells, menadione, AlamarBlue; format: cell-based; conditions: RA-differentiated SH-SY5Y cells, compound 24 hours before menadione, 4 hours oxidative stress treatment, read-out: ED50 (the source's name)
Description: A test was performed by using the same compounds as in Test Example 1. Human neuroblastoma SH-SY5Y cells (ATCC, CRL2266 strain) were cultured in DMEM medium (manufactured by Wako Pure Chemical Industries Ltd.) containing 10% FBS, 100 μg/mL streptomycin and 100 U/mL penicillin G. SH-SY5Y cells were suspended in a DMEM/10% FBS medium, seeded in a cell density of 0.75×10^4 cells/well in a 96-well microplate and cultured in the presence of 5% CO2 at 37° C. for 24 hours. Thereafter, the medium was exchanged with DMEM/10% FBS (DMEM/FBS/RA) medium containing 10 μM all-trans-retinoic acid (RA). At the fifth day, each compound was added so as to obtain 2, 4, 6, 8, 10, 20, 30, 40, 50, 60, 80 μM (final concentration) and culture was performed. Note that, in this experiment, a sample in which DMSO alone was added was used as a negative control.
After 24 hours, an oxidative stress agent, menadione, was added so as to obtain a final concentration of 0, 30, 40, 60 and 80 μM and culture was continued in the presence of 5% CO2 at 37° C. (oxidative stress treatment) Cells treated with a 0.1% Triton X-100/DMEM/FBS/RA medium in place of menadione was used as a blank in this assay. After an oxidative stress treatment for 4 hours, the medium was replaced with a medium containing 10% AlamarBlue and culture was performed in the presence of 5% CO2 at 37° C. Twelve hours later, fluorescent was measured at an excitation wavelength of 530 nm/detection wavelength of 580 nm by use of CYTOFLUOR (registered trade mark) Multi-Well Plate Reader Series 4000 to quantify oxidative stress-mediated cell death suppressive (AOSCD) activity. In accordance with a conventional method, ED50 (Effective Dose) (μM) was calculated.

[2] = Evaluation of blood-brain barrier permeability (concentration in brain after oral administration, HPLC); format: in vivo; conditions: male C57BL/6N mice, 100 mg/kg once orally, fasting
Description: For evaluation of blood-brain barrier permeability, pharmacokinetics (the concentration in brain) in mice was analyzed. In the test, male C57BL/6N mice (at 8 weeks of age) were used. Each compound was suspended in 0.5% sodium carboxymethylcellulose (CMC-Na). The dosage amount was 100 mg/kg per body weight of each mouse. Each compound was administered once orally under fasting conditions. At the time points of 30 minutes and one hour after administration, blood was collected from the heart of each mouse. Subsequently, perfusion was performed using physiological saline containing 10% heparin and thereafter the brain was removed. Serum was obtained by centrifuging the blood sample and brain was lyophilized with liquid nitrogen, both of which were stored at −80° C. until use.
Next, as a pre-treatment for HPLC analysis, deproteinization treatment was performed. Acetonitrile was added to the brain sample and homogenization treatment was performed to grind the brain. The resultant sample was centrifuged (10,000×g, 10 min, 4° C.) and the supernatant was collected, allowed to stand still at −80° C. for 10 minutes, thawed and then centrifuged again (10,000×g, 10 min, 4° C.). The obtained supernatant was dried under vacuum. The vacuum-dried sample was dissolved in a 10 mM phosphate buffer (pH7.0) containing 30-50% acetonitrile, allowed to stand still at −80° C. for 10 minute, thawed again and centrifuged at (10,000×g, 10 min, 4° C.) and the supernatant was collected. Furthermore, filtration treatment by a 0.45 μm filter and centrifugation (10,000×g, 4 min, 4° C.) were performed and subsequently filtration treatment by a 0.22 μm filter and centrifugation (10,000×g, 4 min, 4° C.) were performed. The supernatant was then collected and subjected to HPLC analysis. A standard curve was prepared by using the brain of the same type mouse to which none of the compounds was administered.
(§1) HPLC analysis conditions will be described below.
Column: CAPCELL PAK C18, 4.6 mm I.D.×150 mm (SHISEIDO)
Eluate: 10 mM phosphate buffer/acetonitrile (30-50%)
Dilution solution: 10 mM phosphate
buffer/acetonitrile (30-50%)

[3] = Evaluation of solubility in the 1st fluid (pH1.2) of the Japanese pharmacopeia; format: physicochemical; conditions: 1st fluid (pH 1.2) of the Japanese Pharmacopeia, pH 1.2, simulated gastric fluid, thermodynamic from solid, 25° C.
Description: Using the same compounds as in Experimental Example 1, solubility in the 1st fluid (pH1.2) of the Japanese pharmacopeia was measured. The 1st fluid of the Japanese Pharmacopeia was prepared by dissolving sodium chloride in hydrochloric acid (7.0 mL) and water and adjusting the total amount to 1000 mL. The 1st fluid of the Japanese Pharmacopeia (0.6 mL) was poured in a tube and a compound was added until a precipitate was observed. Then, the tube was shaken at 25° C. for 24 hours (200 rotations/minute) to obtain a compound solution. The compound solution was added to a 96-well plate to which a 0.22 μm filter (manufactured by Millipore) was set and centrifugally filtrated (2700 rotations/minute, 10 minutes). Thereafter, the concentration of the compound in the filtrate was obtained from the peak area obtained by HPLC analysis. The solution for a calibration curve was prepared by dissolving a compound in DMSO.
as §1
Column: TSKgel ODS-80Tm, 4.6×150 mm (manufactured by Tohso Corporation)
Column temperature: 40° C.
Mobile phase: 20 mM sodium 1-decanesulfonate, 40 mM phosphoric acid, 0.2% trimethylamine/acetonitrile

[4] = test system: ALS-SOD1^H46R transgenic mice; assay: In vivo drug efficacy test: survival period after the onset of disease; conditions: for survival period after the onset of disease: control 33.4±3.2 days; for survival benefit versus control group: 0.01, 0.1 and 1 mg/kg orally once per day from onset
Description: (§2) In this test, ALS-SOD1^H46R transgenic mice carrying and expressing ALS1 pathological SOD1 gene (SOD1^H46R) were used. The mice were housed at 23° C. with a 12 hours light/dark cycle. […] Each compound was dissolved in sterilized water, and subsequently an administration solution was prepared with physiological saline. The dose of each compound was 0.01 mg, 0.1 mg and 1 mg/5 ml/kg per body weight of each individual and the compounds were orally administered once per day until an individual dies (compound-administered group). Mice to which physiological saline (5 ml/kg) alone was administered were used as a control group. As an evaluation method for expression of a neurological sign, a balance beam test (a stainless steel bar of 50 cm in length and 0.9 cm in width) was used.
(§3) Each of the mice was subjected to the test and grade 3 was determined as onset of disease. The motor function of the mice in the compound-administered groups and the control group was evaluated based on a vertical pole test and footprint analysis.

[5] = test system: ALS-SOD1^H46R transgenic mice; assay: In vivo drug efficacy test: vertical pole test (motor function); conditions: 21 weeks of age compared with 17 weeks of age, control significantly reduced
Description: as §2, §3
The vertical pole test (stainless steel bar of 50 cm in length and 0.9 cm in width was used) was started when the test mice became 17 weeks of age and carried out once a week. Each mouse was given five trials (noted that a maximum value was 45 cm, and when a mouse reached the vertical ascending distance of 45 cm, the trial was terminated at that point). The maximum value of the 5 trials was defined as motor function value.

[6] = test system: ALS-SOD1^H46R transgenic mice; assay: In vivo drug efficacy test: footprint analysis (ambulation); conditions: 22 weeks of age compared with 18 weeks of age, control showed abnormal ambulation
Description: as §2, §3
Mice of the administered groups and the control group were subject to footprint analysis at 18 weeks and 22 weeks of age. Blue ink and red ink were applied respectively to the front and hind paws of the test mouse and the mouse was then allowed to walk on paper. From the footprint, irregularity of walking was observed. Data was analyzed by use of GraphPad Prism 5 and SPSS 17.0.

[7] = 0.01 mg/kg orally once per day from onset
[8] = 0.1 mg/kg orally once per day from onset
[9] = 1 mg/kg orally once per day from onset

| Structure (SMILES) | EC50 [1] | Amount of blood brain barrier permeation ([2]; 0.5 h after administration) | Amount of blood brain barrier permeation ([2]; 1 h after administration) | solubility at 24 h [3] | survival period after the onset of disease [4, 7] | survival period after the onset of disease [4, 8] | survival period after the onset of disease [4, 9] | survival benefit versus control group [4] | motor function by vertical pole test [5, 8] | ambulation by footprint analysis [6, 8] | motor function by vertical pole test [5, 7] | ambulation by footprint analysis [6, 7] |
| --- | --- | --- | --- | --- | --- | --- | --- | --- | --- | --- | --- | --- |
| Cc1cc(C)c(OCC(=O)Nc2nc(-c3ccccn3)c[nH]2)c(C)c1 [Compound (Ie), 2-(mesityloxy)-N-[4-(pyridin-2-yl)-1H-imidazol-2-yl]acetamide, reference compound] | 6 µM | 27 ng/100 μg | 8 ng/100 μg | 610 µg/mL (≈ 1.81 mM) |  |  |  |  |  |  |  |  |
| Cc1cc(C)c(OCC(=O)Nc2nc(-c3ccccn3)cs2)c(C)c1 [Compound (X), 2-(mesityloxy)-N-(4-pyridin-2-yl-1,3-thiazol-2-yl)acetamide, reference compound] | 20 µM | 62 ng/100 μg | 26 ng/100 μg | 30 µg/mL (≈ 0.0849 mM) |  |  |  |  |  |  |  |  |
| Cc1cc(C)c(O[C@H](C)C(=O)Nc2nc(-c3ccccn3)c[nH]2)c(C)c1 [Compound 10, (2R)-2-(mesityloxy)-N-[4-(pyridin-2-yl)-1H-imidazol-2-yl]propanamide] | 8 µM | 256 ng/100 μg | 225 ng/100 μg | 7880 µg/mL (≈ 22.5 mM) | 43.7 ± 7.5 days | 47.7 ± 6.9 days | 41.8 ± 10.5 days | significant survival benefit | relatively retained | no significant change of ambulation |  |  |
| Cc1cc(C)c(OC(C)(C)C(=O)Nc2nc(-c3ccccn3)c[nH]2)c(C)c1 [Compound 12, 2-(mesityloxy)-2-methyl-N-[4-(pyridin-2-yl)-1H-imidazol-2-yl]propanamide] | 4 µM | 258 ng/100 μg | 133 ng/100 μg | 3760 µg/mL (≈ 10.3 mM) | 36.2 ± 4.0 days | 38.8 ± 4.3 days | 41.0 ± 7.9 days | significant survival benefit |  |  | relatively retained | no significant change of ambulation |
| Cc1cc(C)c(N(C)CC(=O)Nc2nc(-c3ccccn3)c[nH]2)c(C)c1 [Compound 14, 2-[mesityl(methyl)amino]-N-[4-(pyridin-2-yl)-1H-imidazol-2-yl]acetamide] | 4 µM | 519 ng/100 μg | 370 ng/100 μg | 3070 µg/mL (≈ 8.79 mM) | 44.5 ± 3.4 days | 42.2 ± 4.5 days | 42.5 ± 2.9 days | significant survival benefit |  |  | relatively retained | no significant change of ambulation |
| Cc1cc(C)c(NCC(=O)Nc2nc(-c3ccccn3)c[nH]2)c(C)c1 [Compound 22, 2-(mesitylamino)-N-(4-pyridin-2-yl-1H-imidazol-2-yl)acetamide] | 21 µM | 108 ng/100 μg | 16 ng/100 μg | 1810 µg/mL (≈ 5.4 mM) |  |  |  |  |  |  |  |  |
| Cc1cc(C)c(O[C@@H](C)C(=O)Nc2nc(-c3ccccn3)c[nH]2)c(C)c1 [Compound 11, (2S)-2-(mesityloxy)-N-[4-(pyridin-2-yl)-1H-imidazol-2-yl]propanamide] | 4 µM | 478 ng/100 μg | 372 ng/100 μg | 7980 µg/mL (≈ 22.8 mM) |  |  |  |  |  |  |  |  |
